Assay results from PubChem BioAssay AID328 (DTP/NCI, 2004).
Values joined by “and” are separate entries in the source; they are usually repeats but may differ in a detail not shown here. Equal values may be shown once. Toxic doses and inconclusive results are not listed.

System: BDF1 mice, P388 leukemia ip, median survival T/C
Test: NCI In Vivo Anticancer Drug Screen. Data for tumor model P388 Leukemia (intraperitoneal) in B6D2F1 (BDF1) mice
Conditions: endpoint: median survival time, vehicle: saline, higher = longer survival
Outline: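 Survival ratio, drug arm over vehicle arm, in mice with a transplanted tumour.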

Nc1ccc2nc3ccc(N)cc3[n+](-c3ccccc3)c2c1
T/C (dose: 0.12 mg/kg/injection, schedule: Q01DX009 (ip)): 100 % of control | T/C (dose: 0.25 mg/kg/injection, schedule: Q01DX009 (ip)): 110 % of control | T/C (dose: 0.5 mg/kg/injection, schedule: Q01DX009 (ip)): 110 % of control | T/C (dose: 1.0 mg/kg/injection, schedule: Q03HX024 (ip)): 150 % of control | T/C (dose: 1.13 mg/kg/injection, schedule: Q01DX009 (ip)): 116 % of control | T/C (dose: 1.56 mg/kg/injection, schedule: Q01DX009 (ip)): 113 % of control | T/C (dose: 2.0 mg/kg/injection, schedule: Q01DX009 (sc)): 108 % of control | T/C (dose: 2.0 mg/kg/injection, schedule: Q03HX024 (ip)): 155 % of control | T/C (dose: 4.0 mg/kg/injection, schedule: Q01DX009 (ip)): 153 % of control | T/C (dose: 4.0 mg/kg/injection, schedule: Q01DX009 (sc)): 103 % of control | T/C (dose: 4.0 mg/kg/injection, schedule: Q03HX016 (ip)): 153 % of control | T/C (dose: 4.0 mg/kg/injection, schedule: Q03HX024 (ip)): 156 % of control | T/C (dose: 4.0 mg/kg/injection, schedule: Q04DX003 (sc)): 101 % of control | T/C (dose: 6.0 mg/kg/injection, schedule: Q01DX009 (ip)): 166 % of control | T/C (dose: 6.25 mg/kg/injection, schedule: Q01DX009 (ip)): 154 % of control | T/C (dose: 8.0 mg/kg/injection, schedule: Q01DX009 (ip)): 155 % of control and 173 % of control | T/C (dose: 8.0 mg/kg/injection, schedule: Q01DX009 (oral)): 95 % of control | T/C (dose: 8.0 mg/kg/injection, schedule: Q01DX009 (sc)): 106 % of control | T/C (dose: 8.0 mg/kg/injection, schedule: Q04DX003 (sc)): 103 % of control | T/C (dose: 8.0 mg/kg/injection, schedule: Q08DX002 (ip)): 123 % of control | T/C (dose: 9.0 mg/kg/injection, schedule: Q01DX009 (ip)): 150 % of control | T/C (dose: 9.3 mg/kg/injection, schedule: Q01DX009 (ip)): 154 % of control | T/C (dose: 16.0 mg/kg/injection, schedule: Q01DX009 (ip)): 182 % of control | T/C (dose: 16.0 mg/kg/injection, schedule: Q01DX009 (oral)): 105 % of control | T/C (dose: 16.0 mg/kg/injection, schedule: Q01DX009 (sc)): 96 % of control | T/C (dose: 16.0 mg/kg/injection, schedule: Q04DX003 (oral)): 99 % of control | T/C (dose: 16.0 mg/kg/injection, schedule: Q04DX003 (sc)): 106 % of control | T/C (dose: 16.0 mg/kg/injection, schedule: Q08DX002 (ip)): 122 % of control | T/C (dose: 18.0 mg/kg/injection, schedule: Q01DX009 (ip)): 154 % of control and 168 % of control and 195 % of control | T/C (dose: 25.0 mg/kg/injection, schedule: Q04DX003 (ip)): 175 % of control | T/C (dose: 32.0 mg/kg/injection, schedule: Q01DX009 (oral)): 99 % of control | T/C (dose: 32.0 mg/kg/injection, schedule: Q01DX009 (sc)): 105 % of control | T/C (dose: 32.0 mg/kg/injection, schedule: Q04DX003 (ip)): 156 % of control | T/C (dose: 32.0 mg/kg/injection, schedule: Q04DX003 (oral)): 105 % of control | T/C (dose: 32.0 mg/kg/injection, schedule: Q04DX003 (sc)): 97 % of control | T/C (dose: 33.0 mg/kg/injection, schedule: Q04DX003 (ip)): 150 % of control and 170 % of control | T/C (dose: 50.0 mg/kg/injection, schedule: Q04DX003 (ip)): 175 % of control and 180 % of control | T/C (dose: 64.0 mg/kg/injection, schedule: Q01DX009 (oral)): 102 % of control | T/C (dose: 64.0 mg/kg/injection, schedule: Q04DX003 (oral)): 101 % of control | T/C (dose: 64.0 mg/kg/injection, schedule: Q04DX003 (sc)): 101 % of control | T/C (dose: 75.0 mg/kg/injection, schedule: Q04DX003 (ip)): 165 % of control | T/C (dose: 128.0 mg/kg/injection, schedule: Q01DX009 (oral)): 107 % of control | T/C (dose: 128.0 mg/kg/injection, schedule: Q04DX003 (oral)): 101 % of control | T/C (dose: 256.0 mg/kg/injection, schedule: Q04DX003 (oral)): 100 % of control
